Assay results: ChEMBL document CHEMBL5029152, “Discovery of Highly Potent and Selective IRAK1 Degraders to Probe Scaffolding Functions of IRAK1 in ABC DLBCL” (J Med Chem, 2021)

Legend:
[1] = target: Interleukin-1 receptor-associated kinase 1 (Homo sapiens, UniProt P51617); assay: (§1) Inhibition of truncated human N-terminal GST-fusion tagged IRAK1 (194 to 712 residues) expressed in baculovirus expression system using FAM-labelled peptide as substrate preincubated for 10 mins followed by substrate addition and further incubated for 1 hr in presence of ATP at Km concentration by caliper mobility shift assay
Chain of Interleukin-1 receptor-associated kinase 1 (P51617 whole entry, the tested form may be a part): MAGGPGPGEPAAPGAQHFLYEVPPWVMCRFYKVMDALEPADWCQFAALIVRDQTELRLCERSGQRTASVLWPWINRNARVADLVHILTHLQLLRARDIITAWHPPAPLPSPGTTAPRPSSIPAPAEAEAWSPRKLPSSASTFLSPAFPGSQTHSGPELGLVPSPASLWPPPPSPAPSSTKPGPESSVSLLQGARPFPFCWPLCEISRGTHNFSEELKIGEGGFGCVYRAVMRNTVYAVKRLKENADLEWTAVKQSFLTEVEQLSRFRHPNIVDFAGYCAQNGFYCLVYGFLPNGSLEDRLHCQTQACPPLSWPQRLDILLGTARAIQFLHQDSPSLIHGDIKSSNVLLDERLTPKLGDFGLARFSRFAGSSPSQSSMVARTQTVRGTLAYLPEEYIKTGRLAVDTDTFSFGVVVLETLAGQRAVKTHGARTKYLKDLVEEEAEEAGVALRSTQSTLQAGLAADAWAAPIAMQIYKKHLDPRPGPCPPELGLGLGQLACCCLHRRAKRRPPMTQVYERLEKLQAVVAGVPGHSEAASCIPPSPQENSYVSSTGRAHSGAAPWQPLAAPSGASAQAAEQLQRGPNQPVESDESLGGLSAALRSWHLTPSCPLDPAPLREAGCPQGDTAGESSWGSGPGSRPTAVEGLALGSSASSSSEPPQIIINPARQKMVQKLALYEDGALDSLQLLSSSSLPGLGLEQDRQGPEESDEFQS

[2] = target: T1, Interleukin-1 receptor-associated kinase 4 (Homo sapiens, UniProt Q9NWZ3); assay: as §1, with “full length” for “truncated”, “IRAK4” for “IRAK1 (194 to 712 residues)”
T1 sequence (Q9NWZ3 whole entry): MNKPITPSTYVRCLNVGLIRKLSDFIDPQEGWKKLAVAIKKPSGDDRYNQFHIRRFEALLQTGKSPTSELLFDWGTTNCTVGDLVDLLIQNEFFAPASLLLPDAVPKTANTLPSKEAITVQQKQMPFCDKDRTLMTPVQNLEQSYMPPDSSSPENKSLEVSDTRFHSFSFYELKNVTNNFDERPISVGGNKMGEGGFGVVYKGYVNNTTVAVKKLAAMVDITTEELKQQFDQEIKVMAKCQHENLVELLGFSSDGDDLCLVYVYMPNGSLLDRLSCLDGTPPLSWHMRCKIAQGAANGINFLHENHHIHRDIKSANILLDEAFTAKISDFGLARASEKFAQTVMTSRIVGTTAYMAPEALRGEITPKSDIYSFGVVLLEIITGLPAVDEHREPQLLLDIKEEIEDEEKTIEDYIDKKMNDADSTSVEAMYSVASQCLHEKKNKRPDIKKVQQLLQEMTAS

[3] = Cytotoxicity against human HBL1 cells assessed as cell growth inhibition measured after 12 days by WST-8 assay; format: functional, cell-based; details: HBL1, 288 h
[4] = target: T2, von Hippel-Lindau disease tumor suppressor/Interleukin-1 receptor-associated kinase 1 (Homo sapiens, UniProt P51617+P40337); assay: Protac activity at IRAK1/VHL E3 ligase in HEK293T cells assessed as induction of IRAK1 degradation at 10 uM measured after 24 hrs by Western blot analysis relative to control; format: cell-based
Target sequence in this assay (P40337 whole entry, looked up): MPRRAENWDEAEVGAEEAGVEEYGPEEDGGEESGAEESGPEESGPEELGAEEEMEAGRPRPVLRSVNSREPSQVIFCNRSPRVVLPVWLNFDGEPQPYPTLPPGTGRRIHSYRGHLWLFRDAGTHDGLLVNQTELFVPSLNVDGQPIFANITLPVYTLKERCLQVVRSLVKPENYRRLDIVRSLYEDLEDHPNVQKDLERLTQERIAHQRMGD
Target sequence in this assay (P51617 whole entry, looked up): as the sequence (P51617 whole entry, the tested form may be a part) above

[5] = target: von Hippel-Lindau disease tumor suppressor (Homo sapiens, UniProt P40337); assay: Displacement of 5-FAM-labelled DEALA-HypYIPMDDDFQLRSF peptide from VHL (unknown origin) by fluorescence polarization assay
Chain of von Hippel-Lindau disease tumor suppressor (P40337 whole entry): as the sequence (P40337 whole entry, looked up) above

[6] = target: T2, von Hippel-Lindau disease tumor suppressor/Interleukin-1 receptor-associated kinase 1; assay: Protac activity at IRAK1/VHL E3 ligase in HEK293T cells assessed as induction of IRAK1 degradation measured after 24 hrs by Western blot analysis; format: cell-based
Target sequence in this assay (P51617 whole entry): as the sequence (P51617 whole entry, the tested form may be a part) above
Target sequence in this assay (P40337 whole entry): as the sequence (P40337 whole entry, looked up) above

[7] = Cytotoxicity against human HBL1 cells assessed as reduction in cell viability measured after 12 days by CellTiter-Glo assay; format: functional; details: time 12 day
OCI-Ly10 = assay: Cytotoxicity against human OCILY10 cells assessed as reduction in cell viability measured after 12 days by CellTiter-Glo assay; format: functional; details: time 12 day
[8] = target: T2, von Hippel-Lindau disease tumor suppressor/Interleukin-1 receptor-associated kinase 1; assay: Protac activity at IRAK1/VHL E3 ligase in HEK293T cells assessed as induction of IRAK1 degradation at >=1 uM measured after 2 hrs by Western blot analysis relative to control; format: cell-based; details: dose microM >=1, time 2.0 hrs
Target sequence in this assay (P40337 whole entry, looked up): as above
Target sequence in this assay (P51617 whole entry, looked up): as the sequence (P51617 whole entry, the tested form may be a part) above

[9] = target: T2, von Hippel-Lindau disease tumor suppressor/Interleukin-1 receptor-associated kinase 1; assay: Protac activity at IRAK1/VHL E3 ligase in HEK293T cells assessed as induction of IRAK1 degradation at >=1 uM measured after 8 hrs by Western blot analysis relative to control; format: cell-based; details: dose microM >=1, time 8.0 hrs
Target sequence in this assay (P40337 whole entry, looked up): as the sequence (P40337 whole entry, looked up) above
Target sequence in this assay (P51617 whole entry, looked up): as the sequence (P51617 whole entry, the tested form may be a part) above

IC50 [1] [nM] | IC50 [2] [nM] | %max [4] [%] | IC50 [5] [nM] | DC50 [6] [nM] | Activity [8] [%] | Activity [9] [%] | SMILES | IC50 [3] [nM] | Activity [7] [µM] | Activity (OCI-Ly10) [µM]
23 | 24 |  |  |  |  |  | COc1cc(N2CCOCC2)ccc1NC(=O)c1cccc(-c2ccn[nH]2)n1 | 2800 |  | 
60 | 260 | 95 | 1400 |  |  |  | COc1cc(N2CCC(OCC(=O)N[C@H](C(=O)N3C[C@H](O)C[C@H]3C(=O)NCc3ccc(-c4scnc4C)cc3)C(C)(C)C)CC2)ccc1NC(=O)c1cccc(-c2ccn[nH]2)n1 |  |  | 
79 | 320 | 18 | > 10000 | > 10000 |  |  | COc1cc(N2CCC(OCC(=O)N[C@H](C(=O)N3C[C@@H](O)C[C@H]3C(=O)N[C@@H](C)c3ccc(-c4scnc4C)cc3)C(C)(C)C)CC2)ccc1NC(=O)c1cccc(-c2ccn[nH]2)n1 |  | 1.5 | 3
80 | 368 | 88 | 1650 | 134 | 50 | > 90 | COc1cc(N2CCN(CCC(=O)N[C@H](C(=O)N3C[C@H](O)C[C@H]3C(=O)NCc3ccc(-c4scnc4C)cc3)C(C)(C)C)CC2)ccc1NC(=O)c1cccc(-c2cc[nH]n2)n1 |  |  | 
